pIC50, pKi: −log10 of the molar value.
What was measured:
[1] = DRUGMATRIX: GABAA, Flunitrazepam, Central radioligand binding (ligand: [3H] Flunitrazepam); format: cell membranes, Rattus norvegicus, Wistar, Brain, Membrane; details: Not Active = under 50% inhibition at 10 µM
[2] = biological target: C-C chemokine receptor type 2 (Homo sapiens, UniProt P41597); format: cell membranes, CHO-K1, Membrane; details: cho-k1; further: in other assays of this panel Not Active means under 50% inhibition at 10 µM
Melanocortin receptor 3 = Melanocortin receptor 3 (Homo sapiens, UniProt P41968); format: cell membranes, HEK293, Membrane; details: hek293; further: in other assays of this panel Not Active means under 50% inhibition at 10 µM
[3] = DRUGMATRIX: Phosphodiesterase PDE4 enzyme inhibition (substrate: [3H]cAMP + cAMP); details: u-937; Not Active = under 50% inhibition at 10 µM
[4] = biological target: T1, Cholecystokinin receptor type A (Homo sapiens, UniProt P32238); format: cell membranes, Membrane; details: 1321-n1; further: in other assays of this panel Not Active means under 50% inhibition at 10 µM
T1 sequence (P32238 whole entry): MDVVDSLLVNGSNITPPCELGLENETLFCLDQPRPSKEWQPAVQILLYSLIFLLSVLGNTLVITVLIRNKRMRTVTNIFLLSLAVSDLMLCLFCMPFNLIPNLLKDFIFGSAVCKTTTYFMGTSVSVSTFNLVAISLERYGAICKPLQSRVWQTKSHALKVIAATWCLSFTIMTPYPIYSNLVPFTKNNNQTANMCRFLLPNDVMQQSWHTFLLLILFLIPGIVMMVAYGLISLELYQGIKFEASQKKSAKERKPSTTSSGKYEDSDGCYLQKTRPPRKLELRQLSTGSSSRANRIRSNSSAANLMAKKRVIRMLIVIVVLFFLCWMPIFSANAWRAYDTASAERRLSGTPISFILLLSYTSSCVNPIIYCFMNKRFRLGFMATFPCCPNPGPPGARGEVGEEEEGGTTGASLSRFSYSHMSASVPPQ

Cathepsin G = biological target: T2, Cathepsin G (Homo sapiens, UniProt P08311); format: tissue-based; details: neutrophil;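 further: inhibition of Cathepsin G enzyme activity, tested on an AMC-conjugated peptide substrate; in other assays of this panel Not Active means under 50% inhibition at 10 µM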
T2 sequence (P08311 whole entry): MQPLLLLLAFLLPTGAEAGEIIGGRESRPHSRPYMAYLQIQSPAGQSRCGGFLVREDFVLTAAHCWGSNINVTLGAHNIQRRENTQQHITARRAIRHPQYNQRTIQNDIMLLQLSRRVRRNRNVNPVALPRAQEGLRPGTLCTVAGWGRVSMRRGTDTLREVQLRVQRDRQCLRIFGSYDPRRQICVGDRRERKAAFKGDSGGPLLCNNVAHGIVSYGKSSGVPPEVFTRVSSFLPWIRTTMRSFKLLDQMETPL

[5] = DRUGMATRIX: Glutamate, NMDA, Agonism radioligand binding (ligand: [3H] CGP-39653); format: cell membranes, Rattus norvegicus, Wistar, Cerebral cortex, Membrane; details: Not Active = under 50% inhibition at 10 µM
[6] = biological target: Beta-3 adrenergic receptor (Homo sapiens, UniProt P13945); experiment: DRUGMATRIX: Adrenergic beta3 radioligand binding (ligand: [125I] Cyanopindolol); format: cell membranes, HEK293, Membrane; details: Not Active = under 50% inhibition at 10 µM
Beta-3 adrenergic receptor, sequence (P13945 whole entry): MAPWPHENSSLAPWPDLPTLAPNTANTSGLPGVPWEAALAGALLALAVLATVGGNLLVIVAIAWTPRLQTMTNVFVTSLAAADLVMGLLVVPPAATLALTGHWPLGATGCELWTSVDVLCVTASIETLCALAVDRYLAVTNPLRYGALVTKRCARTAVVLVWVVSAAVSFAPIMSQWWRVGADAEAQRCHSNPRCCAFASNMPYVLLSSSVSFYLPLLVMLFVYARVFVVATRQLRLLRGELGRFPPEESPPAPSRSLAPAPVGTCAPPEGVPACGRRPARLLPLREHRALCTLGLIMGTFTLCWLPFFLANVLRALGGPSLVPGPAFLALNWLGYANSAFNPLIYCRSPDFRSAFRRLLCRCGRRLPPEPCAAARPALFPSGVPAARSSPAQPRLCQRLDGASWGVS

Melanocortin receptor 3, sequence (P41968 whole entry): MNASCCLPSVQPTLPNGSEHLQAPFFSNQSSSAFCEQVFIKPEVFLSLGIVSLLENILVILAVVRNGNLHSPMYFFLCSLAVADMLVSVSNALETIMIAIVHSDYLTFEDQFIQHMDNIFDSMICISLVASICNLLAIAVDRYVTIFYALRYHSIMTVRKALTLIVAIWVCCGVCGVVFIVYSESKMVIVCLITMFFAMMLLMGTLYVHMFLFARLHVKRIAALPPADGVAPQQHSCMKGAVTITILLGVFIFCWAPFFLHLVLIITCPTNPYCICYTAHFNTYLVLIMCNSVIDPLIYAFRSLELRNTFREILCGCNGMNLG
C-C chemokine receptor type 2, sequence (P41597 whole entry): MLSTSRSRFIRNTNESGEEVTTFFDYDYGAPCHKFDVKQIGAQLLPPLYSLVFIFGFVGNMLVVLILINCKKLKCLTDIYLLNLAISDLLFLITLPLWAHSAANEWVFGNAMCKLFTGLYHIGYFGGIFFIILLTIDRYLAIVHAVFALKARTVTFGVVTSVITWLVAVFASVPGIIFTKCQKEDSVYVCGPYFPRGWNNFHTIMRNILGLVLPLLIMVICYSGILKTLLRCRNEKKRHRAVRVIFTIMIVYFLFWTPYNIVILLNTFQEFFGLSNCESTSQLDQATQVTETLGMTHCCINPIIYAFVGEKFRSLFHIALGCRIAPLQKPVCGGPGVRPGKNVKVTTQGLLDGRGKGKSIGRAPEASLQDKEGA

| Molecule | IC50 [1] | Ki [1] | IC50 [2] | IC50 (Melanocortin receptor 3) | IC50 [3] | Ki [3] | IC50 [4] | IC50 (Cathepsin G) | IC50 [5] | Ki [5] | IC50 ([6]; hek293) | pIC50 ([6]; read-out: IC50) | pKi ([6]; read-out: Ki) | Ki [2] | Ki (Melanocortin receptor 3) | Ki [4] | Ki (Cathepsin G) | Ki ([6]; hek293) |
| --- | --- | --- | --- | --- | --- | --- | --- | --- | --- | --- | --- | --- | --- | --- | --- | --- | --- | --- |
| C[C@]12CC[C@@H]3c4ccc(O)cc4CC[C@H]3[C@@H]1CCC2=O [ESTRONE] | Not Active | Not Active | Not Active | Not Active | Not Active | Not Active | Not Active | Not Active | Not Active | Not Active | Not Active |  |  |  |  |  |  |  |
| C[C@]12CCC(=O)C=C1CC[C@@H]1[C@@H]2CC[C@@]2(C)[C@H]1CC[C@]2(C)O [METHYLTESTOSTERONE] | Not Active | Not Active | Not Active | Not Active | Not Active | Not Active | Not Active | Not Active | Not Active | Not Active | Not Active |  |  |  |  |  |  |  |
| CC(=O)O[C@@]12CO[C@@H]1C[C@H](O)[C@@]1(C)C(=O)[C@H](O)C3=C(C)[C@@H](OC(=O)[C@H](O)[C@@H](NC(=O)OC(C)(C)C)c4ccccc4)C[C@@](O)([C@@H](OC(=O)c4ccccc4)[C@H]21)C3(C)C.O.O.O [DOCETAXEL] | Not Active | Not Active | Not Active | Not Active | Not Active | Not Active | Not Active | Not Active | Not Active | Not Active | Not Active |  |  |  |  |  |  |  |
| Nc1ncn([C@@H]2O[C@H](CO)[C@@H](O)[C@H]2O)c(=O)n1 [AZACITIDINE] | Not Active | Not Active | Not Active | Not Active | Not Active | Not Active | Not Active | Not Active | Not Active | Not Active | Not Active |  |  |  |  |  |  |  |
| C[C@](N)(Cc1ccc(O)c(O)c1)C(=O)O [METHYLDOPA] | Not Active | Not Active | Not Active | Not Active | Not Active | Not Active | Not Active | Not Active | Not Active | Not Active | Not Active |  |  |  |  |  |  |  |
| O=C(CCCN1CC=C(n2c(=O)[nH]c3ccccc32)CC1)c1ccc(F)cc1 [DROPERIDOL] | Not Active | Not Active | Not Active | Not Active | Not Active | Not Active | Not Active | Not Active | Not Active | Not Active | Not Active |  |  |  |  |  |  |  |
| CN(C)CCCN1c2ccccc2Sc2ccccc21 [PROMAZINE] | Not Active | Not Active | Not Active | Not Active | Not Active | Not Active | Not Active | Not Active | Not Active | Not Active | Not Active |  |  |  |  |  |  |  |
| CN(C)c1nc(N(C)C)nc(N(C)C)n1 [ALTRETAMINE] | Not Active | Not Active | Not Active | Not Active | Not Active | Not Active | Not Active | Not Active | Not Active | Not Active | Not Active |  |  |  |  |  |  |  |
| CC1CC(OC(=O)C(O)c2ccccc2)CC(C)(C)C1 (stereo not drawn) [CYCLANDELATE] | Not Active | Not Active | Not Active | Not Active | Not Active | Not Active | Not Active | Not Active | Not Active | Not Active | Not Active |  |  |  |  |  |  |  |
| CCCN1C[C@H](CSC)C[C@@H]2c3cccc4[nH]cc(c34)C[C@H]21 [PERGOLIDE] | Not Active | Not Active | Not Active | Not Active | Not Active | Not Active | Not Active | Not Active | Not Active | Not Active | Not Active |  |  |  |  |  |  |  |
| c1ccc2c(c1)c1cccc3ccc4cccc2c4c31 [BENZO[E]PYRENE] | Not Active | Not Active | Not Active | Not Active | Not Active | Not Active | Not Active | Not Active | Not Active | Not Active | Not Active |  |  |  |  |  |  |  |
| CC(C)[C@@]1(NC(=O)[C@@H]2C[C@@H]3c4cccc5[nH]cc(c45)C[C@H]3N(C)C2)O[C@@]2(O)[C@@H]3CCCN3C(=O)[C@H](Cc3ccccc3)N2C1=O.CS(=O)(=O)O [DIHYDROERGOCRISTINE MESYLATE] | Not Active | Not Active | Not Active | Not Active | Not Active | Not Active | Not Active | Not Active | Not Active | Not Active |  | 5.48 | 5.61 |  |  |  |  |  |
| CC[C@@]1(O)C[C@H](O[C@H]2C[C@H](N(C)C)[C@H](O[C@H]3C[C@H](O)[C@H](O[C@H]4CCC(=O)[C@H](C)O4)[C@H](C)O3)[C@H](C)O2)c2c(cc3c(c2O)C(=O)c2c(O)cccc2C3=O)[C@H]1C(=O)OC [ACLARUBICIN] | Not Active | Not Active | Not Active | Not Active | Not Active | Not Active | Not Active | Not Active | Not Active | Not Active | Not Active |  |  |  |  |  |  |  |
| CCn1cc(C(=O)O)c(=O)c2cc(F)c(N3CCNCC3)cc21 [NORFLOXACIN] | Not Active | Not Active | Not Active | Not Active | Not Active | Not Active | Not Active | Not Active | Not Active | Not Active | Not Active |  |  |  |  |  |  |  |
| Cc1c(O)c(=O)ccn1C [DEFERIPRONE] | Not Active | Not Active | Not Active | Not Active | Not Active | Not Active | Not Active | Not Active | Not Active | Not Active | Not Active |  |  |  |  |  |  |  |
| NC1=NC(=O)C(c2ccccc2)O1 (stereo not drawn) [PEMOLINE] | Not Active | Not Active | Not Active | Not Active | Not Active | Not Active | Not Active | Not Active | Not Active | Not Active | Not Active |  |  |  |  |  |  |  |
| Sc1ncnc2nc[nH]c12 [MERCAPTOPURINE ANHYDROUS] | Not Active | Not Active | Not Active | Not Active | Not Active | Not Active | Not Active | Not Active | Not Active | Not Active | Not Active |  |  |  |  |  |  |  |
| COCCc1ccc(OCC(O)CNC(C)C)cc1 (stereo not drawn) [METOPROLOL] | Not Active | Not Active | Not Active | Not Active | Not Active | Not Active | Not Active | Not Active | Not Active | Not Active | Not Active |  |  |  |  |  |  |  |
| O=c1[nH]c(=O)n([C@H]2C[C@H](O)[C@@H](CO)O2)cc1I [IDOXURIDINE] | Not Active | Not Active | Not Active | Not Active | Not Active | Not Active | Not Active | Not Active | Not Active | Not Active | Not Active |  |  |  |  |  |  |  |
| CNNCc1ccc(C(=O)NC(C)C)cc1 [PROCARBAZINE] | Not Active | Not Active | Not Active | Not Active | Not Active | Not Active | Not Active | Not Active | Not Active | Not Active | Not Active |  |  |  |  |  |  |  |
| CC(C)C(=O)Nc1ccc([N+](=O)[O-])c(C(F)(F)F)c1 [FLUTAMIDE] | Not Active | Not Active | Not Active | Not Active | Not Active | Not Active | Not Active | Not Active | Not Active | Not Active | Not Active |  |  |  |  |  |  |  |
| LEAD (II) ACETATE | Not Active | Not Active | Not Active | Not Active | Not Active | Not Active | Not Active | Not Active | Not Active | Not Active | Not Active |  |  | Not Active | Not Active | Not Active | Not Active | Not Active |

— ChEMBL document CHEMBL1909046, “DrugMatrix in vitro pharmacology data”
